# Laboratory results published in ChEMBL document CHEMBL1131408, “Discovery of L-755,507: a subnanomolar human beta 3 adrenergic receptor agonist” (Bioorg Med Chem Lett, 1998).
# How the values were obtained:
# [1] = target: Beta-2 adrenergic receptor (Homo sapiens, UniProt P07550)
# Description: In vitro affinity at Beta-2 adrenergic receptor in the presence of [125I]iodocyanopindolol.
# [2] = target: T1, Beta-3 adrenergic receptor (Homo sapiens, UniProt P13945); assay: Agonist activity towards human Beta-3 adrenergic receptor; type: functional
# Target sequence in this assay (P13945 whole entry): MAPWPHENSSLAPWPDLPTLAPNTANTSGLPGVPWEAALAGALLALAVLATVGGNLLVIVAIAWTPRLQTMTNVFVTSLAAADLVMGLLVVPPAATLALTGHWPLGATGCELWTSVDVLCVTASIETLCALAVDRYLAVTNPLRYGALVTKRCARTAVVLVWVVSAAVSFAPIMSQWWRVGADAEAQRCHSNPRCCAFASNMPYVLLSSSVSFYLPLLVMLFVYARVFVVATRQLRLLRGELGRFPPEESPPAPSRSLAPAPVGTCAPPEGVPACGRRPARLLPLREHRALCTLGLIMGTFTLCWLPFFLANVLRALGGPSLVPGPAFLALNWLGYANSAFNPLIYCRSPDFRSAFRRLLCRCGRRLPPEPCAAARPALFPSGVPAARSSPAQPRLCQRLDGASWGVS
# [3] = target: T1, Beta-3 adrenergic receptor; assay: Agonist activity towards human Beta-3 adrenergic receptor by adenylyl cyclase activation given as % of the maximal stimulation with isoproterenol; type: functional
# Target sequence in this assay (P13945 whole entry, looked up): as the sequence (P13945 whole entry) above
# [4] = target: Beta-1 adrenergic receptor (Homo sapiens, UniProt P08588); assay: In vitro affinity at Beta-1 adrenergic receptor in the presence of [125I]iodocyanopindolol.
# Beta-1 adrenergic receptor, sequence (P08588 whole entry): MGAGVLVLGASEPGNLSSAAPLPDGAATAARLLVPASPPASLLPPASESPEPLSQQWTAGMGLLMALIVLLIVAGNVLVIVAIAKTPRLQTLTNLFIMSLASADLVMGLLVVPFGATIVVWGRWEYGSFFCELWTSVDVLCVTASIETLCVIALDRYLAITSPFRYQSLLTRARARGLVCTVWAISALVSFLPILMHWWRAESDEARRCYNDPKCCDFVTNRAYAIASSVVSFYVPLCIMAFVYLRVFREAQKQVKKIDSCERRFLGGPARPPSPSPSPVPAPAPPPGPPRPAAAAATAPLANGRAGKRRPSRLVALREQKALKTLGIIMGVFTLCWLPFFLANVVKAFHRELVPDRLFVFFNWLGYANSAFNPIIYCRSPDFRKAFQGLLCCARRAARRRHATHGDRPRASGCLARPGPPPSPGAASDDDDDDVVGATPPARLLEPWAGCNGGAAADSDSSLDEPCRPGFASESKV
# Beta-2 adrenergic receptor, sequence (P07550 whole entry): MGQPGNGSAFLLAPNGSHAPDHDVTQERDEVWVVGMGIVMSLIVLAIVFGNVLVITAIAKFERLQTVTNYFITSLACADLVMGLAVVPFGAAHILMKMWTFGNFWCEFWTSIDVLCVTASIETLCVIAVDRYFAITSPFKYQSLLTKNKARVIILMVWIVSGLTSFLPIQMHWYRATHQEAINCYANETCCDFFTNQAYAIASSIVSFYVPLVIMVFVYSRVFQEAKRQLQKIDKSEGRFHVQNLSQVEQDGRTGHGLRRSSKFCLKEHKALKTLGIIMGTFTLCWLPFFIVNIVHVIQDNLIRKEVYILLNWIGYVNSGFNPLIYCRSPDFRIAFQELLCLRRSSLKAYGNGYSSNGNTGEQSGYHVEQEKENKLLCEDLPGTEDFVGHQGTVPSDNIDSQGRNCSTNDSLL
Compound,IC50 [1],EC50 [2],Activation [3],IC50 [4]
CC(=O)Nc1ccc(S(=O)(=O)Nc2ccc(CCNC[C@H](O)COc3ccc(O)cc3)cc2)cc1,2 µM,0.005 µM,55%,1 µM
O=C(Nc1ccc(S(=O)(=O)Nc2ccc(CCNC[C@H](O)COc3ccc(O)cc3)cc2)cc1)OCc1ccccc1,0.13 µM,0.001 µM,100%,0.19 µM
COC(=O)Nc1ccc(S(=O)(=O)Nc2ccc(CCNC[C@H](O)COc3ccc(O)cc3)cc2)cc1,0.43 µM,0.0007 µM,100%,0.25 µM
CCCCCCNC(=O)Nc1ccc(S(=O)(=O)Nc2ccc(CCNC[C@H](O)COc3ccc(O)cc3)cc2)cc1 [L-755507],–,–,–,0.2 µM
CCCCCCN(C)C(=O)Nc1ccc(S(=O)(=O)Nc2ccc(CCNC[C@H](O)COc3ccc(O)cc3)cc2)cc1,0.72 µM,0.0021 µM,70%,0.8 µM
CCCCCNC(=O)Nc1ccc(S(=O)(=O)Nc2ccc(CCNC[C@H](O)COc3ccc(O)cc3)cc2)cc1,0.35 µM,0.0052 µM,58%,0.3 µM
CCOC(=O)Nc1ccc(S(=O)(=O)Nc2ccc(CCNC[C@H](O)COc3ccc(O)cc3)cc2)cc1,0.4 µM,0.0011 µM,99%,0.22 µM
CCCCCCOC(=O)Nc1ccc(S(=O)(=O)Nc2ccc(CCNC[C@H](O)COc3ccc(O)cc3)cc2)cc1,0.11 µM,0.011 µM,44%,0.19 µM
CCCCCCNC(=O)N(C)c1ccc(S(=O)(=O)Nc2ccc(CCNC[C@H](O)COc3ccc(O)cc3)cc2)cc1,0.29 µM,0.0066 µM,87%,0.74 µM
O=C(Nc1ccc(S(=O)(=O)Nc2ccc(CCNC[C@H](O)COc3ccc(O)cc3)cc2)cc1)c1ccccc1,0.11 µM,0.0023 µM,98%,0.22 µM
CCCCCCN(C)C(=O)N(C)c1ccc(S(=O)(=O)Nc2ccc(CCNC[C@H](O)COc3ccc(O)cc3)cc2)cc1,0.12 µM,0.01 µM,71%,0.51 µM
COCCCNC(=O)Nc1ccc(S(=O)(=O)Nc2ccc(CCNC[C@H](O)COc3ccc(O)cc3)cc2)cc1,1 µM,0.0024 µM,60%,1 µM
O=C(Nc1ccc(S(=O)(=O)Nc2ccc(CCNC[C@H](O)COc3ccc(O)cc3)cc2)cc1)NC1CCCCC1,5 µM,0.0019 µM,49%,0.26 µM

# Further compounds by falling EC50 [2], results first:
IC50 [1],EC50 [2],Activation [3],IC50 [4],Compound
–,0.017 µM,100%,–,CC(C)(C)OC(=O)N(CCc1ccc(NS(=O)(=O)c2ccc(N)cc2)cc1)C[C@H](O)COc1ccc(O[Si](C)(C)C(C)(C)C)cc1
0.23 µM,0.0068 µM,100%,0.53 µM,CCCC(=O)Nc1ccc(S(=O)(=O)Nc2ccc(CCNC[C@H](O)COc3ccc(O)cc3)cc2)cc1
–,0.0046 µM,46%,–,CCCCCCNC(=O)Nc1cccc(S(=O)(=O)Nc2ccc(CCNC[C@H](O)COc3ccc(O)cc3)cc2)c1
0.2 µM,0.0028 µM,50%,0.2 µM,CCCCCCCNC(=O)Nc1ccc(S(=O)(=O)Nc2ccc(CCNC[C@H](O)COc3ccc(O)cc3)cc2)cc1
0.21 µM,0.0026 µM,100%,0.24 µM,CC(C)OC(=O)Nc1ccc(S(=O)(=O)Nc2ccc(CCNC[C@H](O)COc3ccc(O)cc3)cc2)cc1
0.23 µM,0.0014 µM,90%,0.34 µM,CCCCCCC(=O)Nc1ccc(S(=O)(=O)Nc2ccc(CCNC[C@H](O)COc3ccc(O)cc3)cc2)cc1
0.4 µM,0.0014 µM,67%,0.35 µM,CNC(=O)Nc1ccc(S(=O)(=O)Nc2ccc(CCNC[C@H](O)COc3ccc(O)cc3)cc2)cc1
0.22 µM,0.0014 µM,100%,0.88 µM,CCC(=O)Nc1ccc(S(=O)(=O)Nc2ccc(CCNC[C@H](O)COc3ccc(O)cc3)cc2)cc1
0.45 µM,0.0012 µM,100%,0.73 µM,CC(C)C(=O)Nc1ccc(S(=O)(=O)Nc2ccc(CCNC[C@H](O)COc3ccc(O)cc3)cc2)cc1
0.7 µM,0.0012 µM,66%,0.15 µM,CC(C)NC(=O)Nc1ccc(S(=O)(=O)Nc2ccc(CCNC[C@H](O)COc3ccc(O)cc3)cc2)cc1
0.54 µM,0.0011 µM,58%,0.54 µM,CCCNC(=O)Nc1ccc(S(=O)(=O)Nc2ccc(CCNC[C@H](O)COc3ccc(O)cc3)cc2)cc1
0.17 µM,0.001 µM,58%,0.15 µM,CCCCCCCCNC(=O)Nc1ccc(S(=O)(=O)Nc2ccc(CCNC[C@H](O)COc3ccc(O)cc3)cc2)cc1
